Assay results published in patent EP4273147A1, “SUBSTITUTED SPIROLACTAMS, SALTS THEREOF AND THEIR USE AS HERBICIDALLY ACTIVE SUBSTANCES” (Bayer Aktiengesellschaft, priority 2022, dated 2023).

How the values were obtained:
[1] = test system: SETVI; assay: Herbicidal pre-emergence action (Table A5); type: in vivo, Setaria viridis; settings: visual grading after ca. 3 weeks
Description: (§1) Seeds of mono- and dicotyledonous weed plants were sown in plastic pots (double sowings with one species of mono- and one species of dicotyledonous weed plants per pot), in sandy loam, and covered with soil.

[2] = test system: DIGSA; assay: Herbicidal pre-emergence action (Table A12); type: in vivo, Digitaria sanguinalis; settings: visual grading after ca. 3 weeks
Description: as §1

[3] = test system: VERPE; assay: Herbicidal post-emergence action (Table B10); type: in vivo, Veronica persica
Method: (§2) Seeds of mono- and dicotyledonous weed plants were placed in plastic pots in sandy loam soil (doubly sown with in each case one species of mono- or dicotyledonous weed plants per pot), covered with soil and cultivated in a greenhouse under controlled growth conditions. 2 to 3 weeks after sowing, the test plants were treated at the one-leaf stage. […] After the test plants had been kept in the greenhouse under optimum growth conditions for about 3 weeks, the activity of the preparations was rated visually in comparison to untreated controls. For example, 100% activity = the plants have died, 0% activity = like control plants.

[4] = test system: LOLRI; assay: Herbicidal pre-emergence action (Table A3); type: in vivo, Lolium rigidum; settings: visual grading after ca. 3 weeks; for pest or weed control at 1280 g/ha: Lolium rigidum, pre-emergence, 504 h, read-out: pre-emergence activity against LOLRI
Description: as §1

[5] = test system: STEME; assay: Herbicidal pre-emergence action (Table A6); type: in vivo, Stellaria media; settings: visual grading after ca. 3 weeks
Description: as §1

[6] = test system: ECHCG; assay: Herbicidal pre-emergence action (Table A2); type: in vivo, Echinochloa crus-galli; settings: visual grading after ca. 3 weeks
Description: as §1

[7] = test system: POAAN; assay: Herbicidal pre-emergence action (Table A7); type: in vivo, Poa annua; settings: visual grading after ca. 3 weeks; for pest or weed control at 320 g/ha: Poa annua, pre-emergence, 504 h, read-out: pre-emergence activity against POAAN
Description: as §1

[8] = test system: POAAN; assay: Herbicidal post-emergence action (Table B7); type: in vivo, Poa annua; settings: application rate 1280 g/ha
Method: as §2

[9] = test system: ZEAMX; assay: Post-emergence effects on crop plants (Table F1); type: in vivo, Zea mays; settings: application rate 320 g/ha, crop plant ZEAMX
Description: (§3) 2 to 3 weeks after sowing, the test plants were sprayed in the single-leaf stage.

[10] = test system: VERPE; assay: Herbicidal pre-emergence action (Table A11); type: in vivo, Veronica persica; settings: application rate 1280 g/ha; visual grading after ca. 3 weeks
Description: as §1

[11] = test system: ALOMY; assay: Herbicidal pre-emergence action, section C (Table C2); type: in vivo, Alopecurus myosuroides; settings: application rate 320 g/ha; visual grading after ca. 3 weeks
[12] = test system: VIOTR; assay: Herbicidal pre-emergence action, section C (Table C12); type: in vivo, Viola tricolor; settings: application rate 80 g/ha; visual grading after ca. 3 weeks
[13] = test system: ZEAMX; assay: Pre-emergence effects on crop plants (Table D1); type: in vivo, Zea mays; settings: crop plant, visual grading after ca. 3 weeks
Description: Seeds of mono- and dicotyledonous weed plants and crop plants were sown, in plastic or organic planting pots, in sandy loam and covered with soil. The compounds according to the invention, formulated in the form of wettable powders (WP) or as emulsifiable concentrates (EC), were applied to the surface of the covering soil as aqueous suspension or emulsion, with the addition of 0.5% of an additive, at an application rate of 600 1 of water/ha (converted).
Following treatment, the pots were placed in a greenhouse and kept under optimum growth conditions for the test plants.

[14] = test system: GLXMA; assay: Pre-emergence effects on crop plants (Table D4); type: in vivo, Glycine max; settings: crop plant, visual grading after ca. 3 weeks
[15] = test system: TRZAS; assay: Pre-emergence effects on crop plants (Table D2); type: in vivo, Triticum aestivum; settings: crop plant; application rate 320 g/ha; visual grading after ca. 3 weeks
[16] = test system: DIGSA; assay: Herbicidal pre-emergence action, section C (Table C5); type: in vivo, Digitaria sanguinalis; settings: application rate 320 g/ha; visual grading after ca. 3 weeks
[17] = test system: TRZAS; assay: Post-emergence effects on crop plants (Table F2); type: in vivo, Triticum aestivum; settings: application rate 320 g/ha, crop plant TRZAS
Description: as §3

[18] = test system: VERPE; assay: Herbicidal pre-emergence action, section C (Table C11); type: in vivo, Veronica persica; settings: application rate 320 g/ha; visual grading after ca. 3 weeks
[19] = test system: SETVI; assay: Herbicidal pre-emergence action, section C (Table C10); type: in vivo, Setaria viridis; settings: application rate 320 g/ha; visual grading after ca. 3 weeks
[20] = test system: ORYZA; assay: Post-emergence effects on crop plants (Table F3); type: in vivo, Oryza sativa; settings: application rate 320 g/ha, crop plant ORYZA
Description: as §3

[21] = test system: ECHCG; assay: Herbicidal pre-emergence action, section C (Table C6); type: in vivo, Echinochloa crus-galli; settings: visual grading after ca. 3 weeks
[22] = test system: LOLRI; assay: Herbicidal pre-emergence action, section C (Table C7); type: in vivo, Lolium rigidum; settings: application rate 320 g/ha; visual grading after ca. 3 weeks
[23] = test system: ALOMY; assay: Herbicidal pre-emergence action (Table A9); type: in vivo, Alopecurus myosuroides; settings: application rate 1280 g/ha; visual grading after ca. 3 weeks
Description: as §1

[24] = test system: ECHCG; assay: Herbicidal post-emergence action (Table B3); type: in vivo, Echinochloa crus-galli; settings: application rate 1280 g/ha, rated visually after about 3 weeks
Method: as §2

[25] = test system: ORYZA; assay: Pre-emergence effects on crop plants (Table D3); settings: crop plant, visual grading after ca. 3 weeks
[26] = test system: MATIN; assay: Herbicidal pre-emergence action (Table A4); type: in vivo, Matricaria inodora; settings: visual grading after ca. 3 weeks
Description: as §1

[27] = test system: BRSNW; assay: Post-emergence effects on crop plants (Table F5); type: in vivo, Brassica napus; settings: crop plant BRSNW
Description: as §3

[28] = test system: SETVI; assay: Herbicidal post-emergence action (Table B8); type: in vivo, Setaria viridis
Method: as §2

[29] = test system: KCHSC; assay: Herbicidal pre-emergence action (Table A10); type: in vivo, Kochia scoparia; settings: application rate 1280 g/ha; visual grading after ca. 3 weeks
Description: as §1

[30] = test system: ECHCG; assay: Herbicidal post-emergence action, section E (Table E5); type: in vivo, Echinochloa crus-galli; settings: application rate 320 g/ha; assessed visually after ca. 3 weeks
Description: as §3

[31] = test system: BRSNW; assay: Pre-emergence effects on crop plants (Table D5); type: in vivo, Brassica napus; settings: crop plant; application rate 320 g/ha; visual grading after ca. 3 weeks

Row | SMILES | pre-emergence activity against SETVI ([1]; application rate 1280 g/ha) [%] | post-emergence activity against VERPE ([3]; application rate 1280 g/ha) [%] | pre-emergence activity against STEME ([5]; application rate 1280 g/ha) [%] | pre-emergence activity against ECHCG ([6]; application rate 1280 g/ha) [%] | pre-emergence activity against POAAN ([7]; application rate 320 g/ha) [%] | post-emergence activity against POAAN [8] [%] | pre-emergence activity against ECHCG ([6]; application rate 320 g/ha) [%] | pre-emergence activity against ALOMY [23] [%] | post-emergence activity against ECHCG [24] [%] | post-emergence activity against SETVI ([28]; application rate 1280 g/ha) [%] | pre-emergence activity against SETVI ([1]; application rate 320 g/ha) [%] | pre-emergence activity against LOLRI ([4]; application rate 320 g/ha) [%] | other results
1 | O=C1N(Cc2ccccc2F)CCCC12CCCN(Cc1ccccc1F)C2=O (single isomer, unassigned) [I-056] | 100 | 90 | 90 | 100 | 100 |  |  |  |  |  |  |  | pre-emergence activity against DIGSA ([2]; application rate 1280 g/ha): 100%; pre-emergence activity against LOLRI ([4]; application rate 1280 g/ha): 100%
2 | O=C1N(Cc2ccccc2F)CCCC12CCN(Cc1ccccc1Cl)C2=O (racemic) [I-027] | 100 |  | 90 |  | 100 | 90 | 100 | 90 | 90 |  |  |  | post-emergence activity against ZEAMX [9]: 0%; pre-emergence activity against VERPE [10]: 90%; pre-emergence activity against ALOMY [11]: 100%; pre-emergence activity against VIOTR [12]: 90%; pre-emergence activity against ZEAMX ([13]; application rate 320 g/ha): 0%; pre-emergence activity against DIGSA ([2]; application rate 320 g/ha): 90%; pre-emergence activity against GLXMA ([14]; application rate 80 g/ha): 0%; pre-emergence activity against LOLRI ([4]; application rate 1280 g/ha): 100%; pre-emergence activity against TRZAS [15]: 0%; pre-emergence activity against DIGSA [16]: 100%; post-emergence activity against TRZAS [17]: 0%; pre-emergence activity against VERPE [18]: 90%; pre-emergence activity against SETVI [19]: 100%; post-emergence activity against ORYZA [20]: 0%; pre-emergence activity against ECHCG ([21]; application rate 80 g/ha): 100%; pre-emergence activity against LOLRI [22]: 90%; pre-emergence activity against ORYZA ([25]; application rate 320 g/ha): 0%; pre-emergence activity against MATIN ([26]; application rate 1280 g/ha): 90%; post-emergence activity against BRSNW ([27]; application rate 80 g/ha): 20%
3 | O=C1N(Cc2ccccc2C(F)(F)F)CCCC12CCCN(Cc1ccccc1C(F)(F)F)C2=O (racemic) [I-091] |  |  |  | 100 |  |  |  |  |  |  |  |  | pre-emergence activity against DIGSA ([2]; application rate 1280 g/ha): 100%; post-emergence activity against VERPE ([3]; application rate 320 g/ha): 90%; pre-emergence activity against POAAN ([7]; application rate 1280 g/ha): 100%
4 | Cc1nc(Cl)sc1CN1CCCC2(CCCN(Cc3sc(Cl)nc3C)C2=O)C1=O (racemic) [I-201, 2,8-bis[(2-chloro-4-methyl-1,3-thiazol-5-yl)methyl]-2,8-diazaspiro[5.5]undecane-1,7-dione] |  |  |  |  |  | 90 |  | 100 |  | 90 |  |  | pre-emergence activity against DIGSA ([2]; application rate 1280 g/ha): 90%; pest or weed control at 1280 g/ha ([4]; application rate 1280 g/ha): 100%; pest or weed control at 320 g/ha ([7]; application rate 320 g/ha): 100%
5 | O=C1N(Cc2ccc(F)c(F)c2F)CCCC12CCCN(Cc1ccc(F)c(F)c1F)C2=O (racemic) [I-189, 2,8-bis(2,3,4-trifluorophenylmethyl)-2,8-diazaspiro[5.5]undecane-1,7-dione] |  |  | 90 |  |  |  | 100 | 100 |  |  | 100 |  | pre-emergence activity against KCHSC [29]: 100%; pre-emergence activity against DIGSA ([2]; application rate 320 g/ha): 90%; pest or weed control at 1280 g/ha ([4]; application rate 1280 g/ha): 100%; pest or weed control at 320 g/ha ([7]; application rate 320 g/ha): 100%; post-emergence activity against SETVI ([28]; application rate 320 g/ha): 90%; pest or weed control at 1280 g/ha ([24]; Echinochloa crus-galli, post-emergence, 504 h, read-out: post-emergence activity against ECHCG): 90%; pre-emergence activity against MATIN ([26]; application rate 1280 g/ha): 90%
6 | COc1ccccc1CN1CCCC2(CCCN(Cc3ccccc3F)C2=O)C1=O (racemic) [I-061] |  |  |  |  | 100 | 90 | 100 | 90 | 90 |  | 100 | 100 | post-emergence activity against ZEAMX [9]: 0%; pre-emergence activity against ALOMY [11]: 80%; pre-emergence activity against ZEAMX ([13]; application rate 80 g/ha): 0%; post-emergence activity against ECHCG [30]: 80%; pre-emergence activity against GLXMA ([14]; application rate 320 g/ha): 0%; post-emergence activity against TRZAS [17]: 0%; pre-emergence activity against SETVI [19]: 100%; pre-emergence activity against BRSNW [31]: 0%; post-emergence activity against ORYZA [20]: 0%; pre-emergence activity against ECHCG ([21]; application rate 320 g/ha): 100%; pre-emergence activity against ORYZA ([25]; application rate 80 g/ha): 0%; pre-emergence activity against MATIN ([26]; application rate 1280 g/ha): 90%; post-emergence activity against BRSNW ([27]; application rate 320 g/ha): 0%
7 | Cc1ccccc1CN1CCCC2(CCCN(Cc3c(F)cccc3F)C2=O)C1=O (racemic) [I-051] |  |  |  |  |  | 90 | 100 | 90 | 90 | 90 | 100 | 100 | pre-emergence activity against VERPE [10]: 90%; pre-emergence activity against POAAN ([7]; application rate 1280 g/ha): 90%
8 | CC(c1ccccc1F)N1CCCC2(CCCN(C(C)c3ccccc3F)C2=O)C1=O (stereo not shown) [I-115] | 100 | 90 | 100 |  |  |  |  |  |  |  |  |  | pre-emergence activity against POAAN ([7]; application rate 1280 g/ha): 90%
9 | O=C1N(Cc2ccccc2F)CCCC12CCCN(Cc1ccccc1Cl)C2=O (racemic) [I-036] |  |  |  |  | 90 | 90 | 100 | 90 | 90 | 90 | 100 | 100 | pre-emergence activity against MATIN ([26]; application rate 320 g/ha): 90%
10 | O=C1N(Cc2cccs2)CCCC12CCCN(Cc1ccccc1Cl)C2=O (stereo not shown) [I-062] |  | 90 |  | 100 | 100 | 90 |  |  |  |  | 100 | 100 | pre-emergence activity against STEME ([5]; application rate 320 g/ha): 90%
11 | O=C1N(Cc2ccccc2F)CCC12CCCN(Cc1cccc(F)c1F)C2=O (racemic) [I-085] | 100 |  |  | 100 | 100 | 90 |  | 90 |  | 90 |  | 100 | pre-emergence activity against KCHSC [29]: 90%; pre-emergence activity against DIGSA ([2]; application rate 320 g/ha): 90%; pre-emergence activity against STEME ([5]; application rate 320 g/ha): 90%; pre-emergence activity against MATIN ([26]; application rate 320 g/ha): 90%
12 | O=C1N(Cc2ccccc2Cl)CCCC12CCCN(Cc1ccccc1Cl)C2=O (racemic) [I-054] |  | 90 |  |  | 100 |  | 100 |  |  |  | 100 |  | pre-emergence activity against VERPE [10]: 90%
13 | Cc1ccccc1CN1CCCC2(CCCN(Cc3ccccc3)C2=O)C1=O (racemic) [I-092] |  |  |  |  |  | 90 | 100 |  |  |  | 90 |  | post-emergence activity against VERPE ([3]; application rate 320 g/ha): 90%; pre-emergence activity against LOLRI ([4]; application rate 1280 g/ha): 100%
